What was measured:
[1] = test system: Caco2 cells; assay: Protection of Caco2 cells against hydrogen peroxide oxidative damage (MTT), curcumin formulations; format: cell-based, human; conditions: Caco2 cells treated with hydrogen peroxide and simultaneously with curcumin formulation, 4 hours; % of untreated cells
Procedure: A study was carried out to evaluate the in vitro ability of the nutriosomes to improve the protective efficacy of curcumin against the oxidative damage induced in Caco2 cells by hydrogen peroxide (Figure 8). The cells were sown in 96-well plates and incubated at 37 °C in an atmosphere with 5% CO2 for the period necessary for achieving confluence. As a negative control, cells maintained in optimal growth conditions and not treated either with hydrogen peroxide or with curcumin were used; as a positive control, cells maintained in optimal growth conditions and treated with hydrogen peroxide, but not treated with curcumin, were used. The other cells were treated with hydrogen peroxide and, simultaneously, with curcumin in aqueous dispersion or carried in liposomes, nutriosomes and HPMC-nutriosomes. The cells were incubated for 4 hours, washed with PBS, and then cell survival was measured by means of a colorimetric test with tetrazolium salt, 3-(4,5-dimethylthiazol-2-yl)-2,5-diphenyltetrazolium bromide (MTT) (see annexed Figure 8). Cell viability was calculated as a percentage of the viability of the untreated cells (negative control).

[2] = Plasmatic concentration of curcumin in rats after gavage; format: in vivo, WISTAR male rats; conditions: 2 mL containing 20 mg/mL of curcumin, during the 8 hours of study
Procedure: Curcumin in dispersion or carried in liposomes or nutriosomes was administered to rats in vivo, and both the local accumulation and the plasmatic concentration were measured. The experiments were conducted by using WISTAR male rats (8-12 weeks of age and 230-250 g). The animals were treated in accordance with the European Union regulations concerning the use of laboratory animals. The protocols have been approved by the Istitutional Animal Care and Use Committee of the University of Valencia (Spain). Throughout the length of the study, the animals were kept in a thermally conditioned chamber, with a light/dark cycle of 12 hours and free access to water and food. […] In order to measure the quantity of curcumin accumulated in the intestine, the rats were sacrificed 4 hours after administration, and the gastrointestinal apparatus was removed and divided into the different segments. […]
In order to quantify a plasmatic concentration of curcumin when administering the aqueous dispersion, it was necessary to double the concentration; therefore, 2 mL of dispersion were administered, containing 20 mg/mL of curcumin instead of 10 mg/mL as in liposomes and nutriosomes (Figure 10). Notwithstanding this, the measured plasmatic concentration is always very low, i.e. ∼10 ng/mL during the 8 hours of study. […]

[3] = test system: Caco2; assay: Biocompatibility on Caco2 cells, 48 hours, MTT (curcumin, EU-nutriosomes); format: cell-based, human; conditions: Caco2, 48 hours, higher dilutions; % of untreated cells
Procedure: The biocompatibility of curcumin in dispersion or carried in liposomes or EU-nutriosomes was measured by treating intestinal cells (Caco2) with the vesicular formulations at different dilutions for 48 hours. At the end of this incubation period, cell viability was measured by MTT test, and was expressed as a percentage with respect to the untreated cells (negative control). The results are shown in the annexed Figure 13. At the lowest dilution (10 µg/mL of curcumin), viability is ~75%, regardless of the tested sample; at higher dilutions, the viability of the cells treated with curcumin in dispersion remains around 80%, while that of the cells treated with the nutriosomes is greater (~105%) and equal to that of the reference liposomes, which are generally known to be a non-toxic and biocompatible carrier. Probably all vesicular systems are capable of modulating the curcumin uptake within the cells, thereby reducing any toxic effect thereof. By using a non-toxic dilution (1 µg/mL of curcumin), we studied the ability of the formulations to promote the antioxidizing efficacy of the polyphenol. As shown in the previous example, the cells were stressed with hydrogen peroxide and simultaneously treated with curcumin in dispersion or incorporated in the vesicles (see annexed Figure 14). […]

[4] = Ascorbic acid release from vesicles by dialysis at pH 2 and pH 7; format: physicochemical; conditions: 37 °C
Procedure: The velocity (concentration as a function of time) at which the ascorbic acid is released from the vesicles as a function of pH (2 and 7) was measured as well. The dispersions (1 mL) were transferred into dialysis tubes Spectra-Por (300 kDa Float-A-Lyzer G2) immersed in 50 mL of a solution of HCl 0.1 M (pH 2), or in 50 mL of PBS (Phosphate Buffered Saline at pH 7), and maintained at 37 °C under constant stirring for 2 hours at pH 2 and for 6 hours at pH 7. A percentage of the sample was removed at predefined time intervals, and the ascorbic acid concentration was measured with a UV spectrophotometer. […] As aforementioned, release studies were carried out in order to evaluate the ability of the lamellar vesicles to retain and protect the ascorbic acid during the passage through the stomach (pH 2) and/or to retain/protect the same at the neutral pH of the intestine. […] The nutriosomes of the present invention, with or without the additional polymer HPMC, release a quantity of less than 20% after 20 minutes; subsequently, the HPMC-nutriosomes release the lowest percentage, ~40%, after 120 minutes.

For `COc1cc(C=CC(=O)CC(=O)C=Cc2ccc(O)c(OC)c2)ccc1O` [curcumin in aqueous dispersion, 1,7-Bis(4-hydroxy-3-methoxyphenyl)hepta-1,6-diene-3,5-dione], the cell viability [1] was ~ 69%, the “plasmatic concentration of curcumin” value [2] was ~10 ng/mL and the cell viability [3] was “around 80%”.

In the case of `O=C1O[C@H]([C@@H](O)CO)C(O)=C1O` [aqueous solution, ascorbic acid], the ascorbic acid released ([4]; pH 2 (HCl 0.1 M), after 20 minutes) is reported as “approximately 80%” and the ascorbic acid released ([4]; pH 7 (PBS), after 1 hour) is reported as “about 80%”.

Reference: EP3409293B1, “COMPLEXES COMPRISING PHOSPHOLIPIDS, WATER-SOLUBLE DEXTRIN FIBERS AND ANTIOXIDANT ACTIVE PRINCIPLES OF NATURAL ORIGIN, THEIR PREPARATION AND USE IN ORAL FORMULATIONS” (UNIVERSITA' DEGLI STUDI DI CAGLIARI, priority 2017, dated 2018)
